Results taken from patent publication US20260042731A1, “(2,4-DICHLOROPHENOXY)ACETIC ACID ANALOGS” (CORTEVA AGRISCIENCE LLC, priority 2022, published 2026).
Where two headings read alike, the source gives them in different places.

What was measured:
[1] = system: Amaranthus rudis (AMATA), tall water hemp; assay: Postemergence herbicide evaluation, growth of Amaranthus rudis (AMATA); assay type: in vivo; details: Amaranthus tuberculatus, post-emergence, percent reduction in plant size vs untreated control, read-out: Ave. AMATA; for pest or weed control at 280 g/ha: 280 g ae/ha; for pest or weed control at 560 g/ha: 560 g ae/ha
[2] = system: Ambrosia artemisiifolia (AMBEL), common ragweed; assay: Postemergence herbicide evaluation, growth of Ambrosia artemisiifolia (AMBEL); assay type: in vivo; details: Ambrosia artemisiifolia, post-emergence, percent reduction in plant size vs untreated control, read-out: AVE. AMBEL; for pest or weed control at 280 g/ha: 280 g ae/ha; for pest or weed control at 560 g/ha: 560 g ae/ha
[3] = system: Abutilon theophrasti (ABUTH), velvetleaf; assay: Postemergence herbicide evaluation, growth of Abutilon theophrasti (ABUTH); assay type: in vivo; details: Abutilon theophrasti, post-emergence, percent reduction in plant size vs untreated control, read-out: AVE. ABUTH; for pest or weed control at 280 g/ha: 280 g ae/ha; for pest or weed control at 560 g/ha: 560 g ae/ha
[4] = system: Chenopodium album (CHEAL), common lambsquarters; assay: Postemergence herbicide evaluation, growth of Chenopodium album (CHEAL); assay type: in vivo; details: Chenopodium album, post-emergence, percent reduction in plant size vs untreated control, read-out: Ave. CHEAL; for pest or weed control at 280 g/ha: 280 g ae/ha; for pest or weed control at 560 g/ha: 560 g ae/ha
[5] = system: glyphosate resistant Conyza canadensis (L.) (ERICA), horseweed; assay: Postemergence herbicide evaluation, growth of Conyza canadensis (ERICA); assay type: in vivo; details: Erigeron canadensis, post-emergence, percent reduction in plant size vs untreated control, read-out: Ave. ERICA; for pest or weed control at 280 g/ha: 280 g ae/ha; for pest or weed control at 560 g/ha: 560 g ae/ha
[6] = Volatility of compounds measured by thermogravimetric analysis (TGA); assay type: physicochemical
[7] = system: weeds ABUTH, AMATA, AMBEL, CHEAL, ERICA; assay: Postemergence herbicide evaluation, overall average % weed control across ABUTH, AMATA, AMBEL, CHEAL and ERICA; assay type: in vivo; details: post-emergence, average over five weeds, read-out: Overall Ave % Weed Control; for pest or weed control at 280 g/ha: 280 g ae/ha; for pest or weed control at 560 g/ha: 560 g ae/ha

With `O=C(COc1ccc(Cl)cc1Cl)Oc1cccnc1` [Compound E9] the pest or weed control at 280 g/ha ([1]; 168 h, 7 DAA) was 77.5%, the pest or weed control at 660 g/ha ([1]; 168 h, 660 g ae/ha, 7 DAA) was 92.5% and the pest or weed control at 280 g/ha ([1]; 336 h, 14 DAA) was 85%. It also gave a pest or weed control at 560 g/ha ([1]; 336 h, 14 DAA) of 87.5%, a pest or weed control at 280 g/ha ([1]; 504 h, 21 DAA) of 92.5% and a pest or weed control at 560 g/ha ([1]; 504 h, 21 DAA) of 94%. It also gave a pest or weed control at 280 g/ha ([2]; 168 h, 7 DAA) of 80%, a pest or weed control at 660 g/ha ([2]; 168 h, 660 g ae/ha, 7 DAA) of 87.5% and a pest or weed control at 280 g/ha ([2]; 336 h, 14 DAA) of 90%. The pest or weed control at 560 g/ha ([2]; 336 h, 14 DAA) was 97.5%, the pest or weed control at 280 g/ha ([2]; 504 h, 21 DAA) was 100% and the pest or weed control at 560 g/ha ([2]; 504 h, 21 DAA) was 100%. It also gave a pest or weed control at 280 g/ha ([3]; 168 h, 7 DAA) of 57.5%, a pest or weed control at 660 g/ha ([3]; 168 h, 660 g ae/ha, 7 DAA) of 82.5% and a pest or weed control at 280 g/ha ([3]; 336 h, 14 DAA) of 75%. For the same compound, the pest or weed control at 560 g/ha ([3]; 336 h, 14 DAA) was 98%, the pest or weed control at 280 g/ha ([3]; 504 h, 21 DAA) was 88.5% and the pest or weed control at 560 g/ha ([3]; 504 h, 21 DAA) was 99.5%. For the same compound, the pest or weed control at 280 g/ha ([4]; 168 h, 7 DAA) was 75%, the pest or weed control at 660 g/ha ([4]; 168 h, 660 g ae/ha, 7 DAA) was 80% and the pest or weed control at 280 g/ha ([4]; 336 h, 14 DAA) was 96.5%. The pest or weed control at 560 g/ha ([4]; 336 h, 14 DAA) was 99%, the pest or weed control at 280 g/ha ([4]; 504 h, 21 DAA) was 90% and the pest or weed control at 560 g/ha ([4]; 504 h, 21 DAA) was 93.5%. For the same compound, the pest or weed control at 280 g/ha ([5]; 168 h, 7 DAA) was 82.5%, the pest or weed control at 660 g/ha ([5]; 168 h, 660 g ae/ha, 7 DAA) was 77.5% and the pest or weed control at 280 g/ha ([5]; 336 h, 14 DAA) was 99.5%. The pest or weed control at 560 g/ha ([5]; 336 h, 14 DAA) was 100%, the pest or weed control at 280 g/ha ([5]; 504 h, 21 DAA) was 99% and the pest or weed control at 560 g/ha ([5]; 504 h, 21 DAA) was 100%. For the same compound, the “TGA Data (rate of weight loss, volatility)” value [6] was 0.6748 µg/min, the pest or weed control at 280 g/ha ([7]; 168 h, 7 DAA) was 74.5% and the pest or weed control at 660 g/ha ([7]; 168 h, 660 g ae/ha, 7 DAA) was 84%. It also gave a pest or weed control at 280 g/ha ([7]; 336 h, 14 DAA) of 89.2%, a pest or weed control at 560 g/ha ([7]; 336 h, 14 DAA) of 96.4% and a pest or weed control at 280 g/ha ([7]; 504 h, 21 DAA) of 94%. It also gave a pest or weed control at 560 g/ha ([7]; 504 h, 21 DAA) of 97.4%.
`O=C(COc1ccc(Cl)cc1Cl)Oc1ccccn1` [Compound E11] gave a pest or weed control at 280 g/ha ([1]; 168 h, 7 DAA) of 70%, a pest or weed control at 560 g/ha ([1]; 168 h, 7 DAA) of 85% and a pest or weed control at 280 g/ha ([1]; 336 h, 14 DAA) of 90%. For the same compound, the pest or weed control at 560 g/ha ([1]; 336 h, 14 DAA) was 93.5%, the pest or weed control at 280 g/ha ([1]; 504 h, 21 DAA) was 67.5% and the pest or weed control at 560 g/ha ([1]; 504 h, 21 DAA) was 90%. For the same compound, the pest or weed control at 280 g/ha ([2]; 168 h, 7 DAA) was 77.5%, the pest or weed control at 560 g/ha ([2]; 168 h, 7 DAA) was 80% and the pest or weed control at 280 g/ha ([2]; 336 h, 14 DAA) was 70%. The pest or weed control at 560 g/ha ([2]; 336 h, 14 DAA) was 90%, the pest or weed control at 280 g/ha ([2]; 504 h, 21 DAA) was 100% and the pest or weed control at 560 g/ha ([2]; 504 h, 21 DAA) was 100%. The pest or weed control at 280 g/ha ([3]; 168 h, 7 DAA) was 65%, the pest or weed control at 560 g/ha ([3]; 168 h, 7 DAA) was 82.5% and the pest or weed control at 280 g/ha ([3]; 336 h, 14 DAA) was 85%. The pest or weed control at 560 g/ha ([3]; 336 h, 14 DAA) was 97.5%, the pest or weed control at 280 g/ha ([3]; 504 h, 21 DAA) was 98.5% and the pest or weed control at 560 g/ha ([3]; 504 h, 21 DAA) was 100%. It also gave a pest or weed control at 280 g/ha ([4]; 168 h, 7 DAA) of 77.5%, a pest or weed control at 560 g/ha ([4]; 168 h, 7 DAA) of 80% and a pest or weed control at 280 g/ha ([4]; 336 h, 14 DAA) of 97.5%. For the same compound, the pest or weed control at 560 g/ha ([4]; 336 h, 14 DAA) was 98%, the pest or weed control at 280 g/ha ([4]; 504 h, 21 DAA) was 92.5% and the pest or weed control at 560 g/ha ([4]; 504 h, 21 DAA) was 100%. For the same compound, the pest or weed control at 280 g/ha ([5]; 168 h, 7 DAA) was 82.5%, the pest or weed control at 560 g/ha ([5]; 168 h, 7 DAA) was 85% and the pest or weed control at 280 g/ha ([5]; 336 h, 14 DAA) was 97.5%. For the same compound, the pest or weed control at 560 g/ha ([5]; 336 h, 14 DAA) was 90%, the pest or weed control at 280 g/ha ([5]; 504 h, 21 DAA) was 100% and the pest or weed control at 560 g/ha ([5]; 504 h, 21 DAA) was 100%. For the same compound, the “TGA Data (rate of weight loss, volatility)” value [6] was 0.4827 µg/min, the pest or weed control at 280 g/ha ([7]; 168 h, 7 DAA) was 74.5% and the pest or weed control at 560 g/ha ([7]; 168 h, 7 DAA) was 82.5%. For the same compound, the pest or weed control at 280 g/ha ([7]; 336 h, 14 DAA) was 88%, the pest or weed control at 560 g/ha ([7]; 336 h, 14 DAA) was 95.6% and the pest or weed control at 280 g/ha ([7]; 504 h, 21 DAA) was 91.7%. The pest or weed control at 560 g/ha ([7]; 504 h, 21 DAA) was 98%.
